US10507248B2, “Hydrophobic core carrier compositions for delivery of therapeutic agents, methods of making and using the same” (PharmaIn Corporation, priority 2005, dated 2019)

Experiments:
[1] = system: streptozotocin diabetic rats; test: Treatment of streptozotocin diabetic rats for 4 weeks; format: in vivo, Sprague-Dawley rats
Protocol: FIG. 45. […] Prior to treatment the blood glucose levels taken every 2 days for 6 days prior to treatment are between 300-600 mg/dl. After randomization the average blood sugar level of each group are between 421 and 433 mg/dl. Rats were treated every 2 days subcutaneously. […] Non-fasting sugar levels taken every 2 days were added together to obtain area under the curve (AUC) for each animal to average out cyclical variability in each animal.
FIG. 46. This is a graph showing the average body weight of streptozotocin diabetic rats at the end of the 4 week treatment period (+/−standard deviation; n=4) that started at 13th day after diabetes induction with 60 mg/kg streptozotocin. The starting weights of all animals prior to streptozotocin treatment are within 240 to 260 grams.
FIG. 47. […] The islets were located and the number of BrDU positive nuclei in each islet was counted.
Briefly for this in vivo protocol, 12-week old male Sprague-Dawley (HSD) rats (Harlan, Indianapolis, Ind.) were housed at 23±1° C. in a 12:12-h light:dark cycle, and were given access to food and water ad libitium (diet LM-485, Teklad, Madison, Wis.). […] Non-fasting blood sugar levels were monitored daily from day 2 by tail-tip snip blood collection (5 ul) and blood sugar levels were measured using Glucometer (Ascensia Elite, Bayer Co. Mishawaka, Ind.) and test strips (Bayer Co. Mishawaka, Ind.). […]

[2] = native peptides; cited from earlier work
[3] = in vivo; cited from earlier work
DPP-8 = DPP-8 (Homo sapiens, UniProt Q6V1X1); conditions: concentrations approximating those from therapeutic doses; cited from earlier work
DPP-8, sequence (Q6V1X1 whole entry): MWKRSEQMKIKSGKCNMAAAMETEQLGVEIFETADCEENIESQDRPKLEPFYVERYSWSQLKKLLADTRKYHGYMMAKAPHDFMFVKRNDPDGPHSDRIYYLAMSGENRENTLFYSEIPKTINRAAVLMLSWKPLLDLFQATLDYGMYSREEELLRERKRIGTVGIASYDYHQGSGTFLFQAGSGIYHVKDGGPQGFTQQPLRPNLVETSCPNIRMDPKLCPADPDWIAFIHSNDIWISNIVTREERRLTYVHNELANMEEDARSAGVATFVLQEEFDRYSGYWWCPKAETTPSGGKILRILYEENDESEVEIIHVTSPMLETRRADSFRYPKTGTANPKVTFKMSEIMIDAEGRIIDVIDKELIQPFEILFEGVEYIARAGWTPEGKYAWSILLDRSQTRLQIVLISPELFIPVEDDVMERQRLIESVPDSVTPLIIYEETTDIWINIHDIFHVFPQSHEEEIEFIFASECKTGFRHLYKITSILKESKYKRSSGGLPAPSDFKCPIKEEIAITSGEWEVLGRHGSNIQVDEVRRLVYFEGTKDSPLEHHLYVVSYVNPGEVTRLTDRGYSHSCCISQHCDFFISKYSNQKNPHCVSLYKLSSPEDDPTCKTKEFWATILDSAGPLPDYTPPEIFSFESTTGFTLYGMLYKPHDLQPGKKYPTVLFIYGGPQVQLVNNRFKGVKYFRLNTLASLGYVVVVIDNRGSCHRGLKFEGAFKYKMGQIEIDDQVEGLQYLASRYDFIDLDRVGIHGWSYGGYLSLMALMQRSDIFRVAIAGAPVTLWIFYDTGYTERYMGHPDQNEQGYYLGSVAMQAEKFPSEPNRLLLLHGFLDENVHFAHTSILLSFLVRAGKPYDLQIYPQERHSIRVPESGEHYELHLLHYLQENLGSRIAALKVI

DPP-9 = DPP-9 (Homo sapiens, UniProt Q86TI2); conditions: concentrations approximating those from therapeutic doses; cited from earlier work
DPP-9, sequence (Q86TI2 whole entry): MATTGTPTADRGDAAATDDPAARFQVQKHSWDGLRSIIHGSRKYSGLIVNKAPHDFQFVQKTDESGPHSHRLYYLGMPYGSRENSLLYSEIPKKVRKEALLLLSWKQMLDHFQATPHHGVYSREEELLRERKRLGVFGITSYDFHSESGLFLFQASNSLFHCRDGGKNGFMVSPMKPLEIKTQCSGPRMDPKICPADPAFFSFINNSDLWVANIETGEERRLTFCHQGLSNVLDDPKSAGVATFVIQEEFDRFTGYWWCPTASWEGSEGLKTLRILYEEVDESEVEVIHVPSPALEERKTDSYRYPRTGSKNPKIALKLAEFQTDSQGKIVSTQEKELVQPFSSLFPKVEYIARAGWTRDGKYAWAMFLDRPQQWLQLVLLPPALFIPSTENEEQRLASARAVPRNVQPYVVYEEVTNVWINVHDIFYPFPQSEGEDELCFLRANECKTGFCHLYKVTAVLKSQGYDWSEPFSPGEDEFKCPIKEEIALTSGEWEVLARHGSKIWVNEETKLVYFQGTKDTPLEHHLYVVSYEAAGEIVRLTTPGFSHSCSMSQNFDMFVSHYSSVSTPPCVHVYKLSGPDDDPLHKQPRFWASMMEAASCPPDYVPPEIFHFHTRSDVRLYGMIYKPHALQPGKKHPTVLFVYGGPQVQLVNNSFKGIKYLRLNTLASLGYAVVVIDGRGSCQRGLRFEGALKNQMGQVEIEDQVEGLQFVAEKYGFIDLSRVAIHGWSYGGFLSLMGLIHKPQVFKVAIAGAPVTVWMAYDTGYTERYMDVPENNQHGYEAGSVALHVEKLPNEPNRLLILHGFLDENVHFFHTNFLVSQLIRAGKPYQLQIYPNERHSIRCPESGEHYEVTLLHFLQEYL

In the case of `CC[C@H](C)[C@H](NC(=O)[C@H](Cc1ccccc1)NC(=O)[C@H](CCC(=O)O)NC(=O)[C@H](CCCCN)NC(=O)[C@H](C)NC(=O)[C@H](C)NC(=O)[C@H](CCC(N)=O)NC(=O)CNC(=O)[C@H](CCC(=O)O)NC(=O)[C@H](CC(C)C)NC(=O)[C@H](Cc1ccc(O)cc1)NC(=O)[C@H](CO)NC(=O)[C@H](CO)NC(=O)[C@@H](NC(=O)[C@H](CC(=O)O)NC(=O)[C@H](CO)NC(=O)[C@@H](NC(=O)[C@H](Cc1ccccc1)NC(=O)[C@@H](NC(=O)CNC(=O)[C@H](CCC(=O)O)NC(=O)[C@H](C)NC(=O)[C@@H](N)Cc1c[nH]cn1)[C@@H](C)O)[C@@H](C)O)C(C)C)C(=O)N[C@@H](C)C(=O)N[C@@H](Cc1c[nH]c2ccccc12)C(=O)N[C@@H](CC(C)C)C(=O)N[C@H](C(=O)N[C@@H](CCCCN)C(=O)NCC(=O)N[C@@H](CCCNC(=N)N)C(N)=O)C(C)C` [GLP-1, GLP-1 (7-36 amide)], the “BrdU positive nuclei (cell divisions) in the islets” value ([1]; pancreas histology after 4 weeks, versus PBS or empty carrier) is reported as “significantly more cell divisions” and the “body weight at the end of the 4 week treatment” value ([1]; s.c. every 2 days for 4 weeks, 20 ug GLP-1) is reported as “greater variability in response”.

In the case of “native gastrin: native peptide hormone with short biological half-life”, the biological half-life [2] is given as “few minutes”.

In the case of `COc1ccc2[nH]c([S+]([O-])Cc3ncc(C)c(OC)c3C)nc2c1` (stereo not drawn) [Omeprazole], the LD50 [3] is listed as greater than 4000 mg/kg.

For `N[C@@H](CC(=O)N1CCn2c(nnc2C(F)(F)F)C1)Cc1cc(F)c(F)cc1F` [Sitagliptin, 7-[(3R)-3-amino-1-oxo-4-(2,4,5-trifluorophenyl)butyl]-5,6,7,8-tetrahydro-3-(trifluoromethyl)-1,2,4-triazolo[4,3-a]pyrazine phosphate (1:1) monohydrate], the “inhibition of DPP-8 activity in vitro” value (DPP-8) is given as “does not inhibit” and the “inhibition of DPP-9 activity in vitro” value (DPP-9) is given as “does not inhibit”.
